Results on four compounds are retold here after ChEMBL document CHEMBL2073819, “Enhanced exposure of phosphatidylserine in human gastric carcinoma cells overexpressing the half-size ABC transporter BCRP (ABCG2)” (Biochem J, 2003).

Assay type in all cases: functional, cell-based
Series [1] concerns the target T1, Broad substrate specificity ATP-binding cassette transporter ABCG2 (Homo sapiens, UniProt Q9UNQ0).
T1 sequence (Q9UNQ0 whole entry): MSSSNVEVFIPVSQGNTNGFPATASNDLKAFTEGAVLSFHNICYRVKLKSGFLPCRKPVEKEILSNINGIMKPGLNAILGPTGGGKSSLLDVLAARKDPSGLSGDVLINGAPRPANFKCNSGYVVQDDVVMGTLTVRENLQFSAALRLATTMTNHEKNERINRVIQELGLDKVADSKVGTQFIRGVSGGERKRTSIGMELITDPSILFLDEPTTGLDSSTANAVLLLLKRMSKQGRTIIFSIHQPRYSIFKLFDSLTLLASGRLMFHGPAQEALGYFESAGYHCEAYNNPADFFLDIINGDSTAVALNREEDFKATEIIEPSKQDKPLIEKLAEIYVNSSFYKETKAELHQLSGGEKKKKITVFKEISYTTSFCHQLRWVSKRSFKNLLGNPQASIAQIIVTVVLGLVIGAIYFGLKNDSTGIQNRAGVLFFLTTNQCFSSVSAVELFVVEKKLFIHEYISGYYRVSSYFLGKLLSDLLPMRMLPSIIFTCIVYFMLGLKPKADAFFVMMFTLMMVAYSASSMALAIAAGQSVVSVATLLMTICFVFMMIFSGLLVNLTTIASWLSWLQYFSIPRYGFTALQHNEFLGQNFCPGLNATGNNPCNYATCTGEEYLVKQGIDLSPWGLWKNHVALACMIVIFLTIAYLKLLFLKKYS
Description: TP_TRANSPORTER: inhibition of C6-NBD-PS efflux in BCRP-expressing EPG85-257 cells.

For series [2], the target named is T2, ATP-dependent translocase ABCB1 (Homo sapiens, UniProt P08183). Description: TP_TRANSPORTER: inhibition of C6-NBD-PS efflux in MDR1-expressing EPG85-257 cells.
T2 sequence (P08183 whole entry): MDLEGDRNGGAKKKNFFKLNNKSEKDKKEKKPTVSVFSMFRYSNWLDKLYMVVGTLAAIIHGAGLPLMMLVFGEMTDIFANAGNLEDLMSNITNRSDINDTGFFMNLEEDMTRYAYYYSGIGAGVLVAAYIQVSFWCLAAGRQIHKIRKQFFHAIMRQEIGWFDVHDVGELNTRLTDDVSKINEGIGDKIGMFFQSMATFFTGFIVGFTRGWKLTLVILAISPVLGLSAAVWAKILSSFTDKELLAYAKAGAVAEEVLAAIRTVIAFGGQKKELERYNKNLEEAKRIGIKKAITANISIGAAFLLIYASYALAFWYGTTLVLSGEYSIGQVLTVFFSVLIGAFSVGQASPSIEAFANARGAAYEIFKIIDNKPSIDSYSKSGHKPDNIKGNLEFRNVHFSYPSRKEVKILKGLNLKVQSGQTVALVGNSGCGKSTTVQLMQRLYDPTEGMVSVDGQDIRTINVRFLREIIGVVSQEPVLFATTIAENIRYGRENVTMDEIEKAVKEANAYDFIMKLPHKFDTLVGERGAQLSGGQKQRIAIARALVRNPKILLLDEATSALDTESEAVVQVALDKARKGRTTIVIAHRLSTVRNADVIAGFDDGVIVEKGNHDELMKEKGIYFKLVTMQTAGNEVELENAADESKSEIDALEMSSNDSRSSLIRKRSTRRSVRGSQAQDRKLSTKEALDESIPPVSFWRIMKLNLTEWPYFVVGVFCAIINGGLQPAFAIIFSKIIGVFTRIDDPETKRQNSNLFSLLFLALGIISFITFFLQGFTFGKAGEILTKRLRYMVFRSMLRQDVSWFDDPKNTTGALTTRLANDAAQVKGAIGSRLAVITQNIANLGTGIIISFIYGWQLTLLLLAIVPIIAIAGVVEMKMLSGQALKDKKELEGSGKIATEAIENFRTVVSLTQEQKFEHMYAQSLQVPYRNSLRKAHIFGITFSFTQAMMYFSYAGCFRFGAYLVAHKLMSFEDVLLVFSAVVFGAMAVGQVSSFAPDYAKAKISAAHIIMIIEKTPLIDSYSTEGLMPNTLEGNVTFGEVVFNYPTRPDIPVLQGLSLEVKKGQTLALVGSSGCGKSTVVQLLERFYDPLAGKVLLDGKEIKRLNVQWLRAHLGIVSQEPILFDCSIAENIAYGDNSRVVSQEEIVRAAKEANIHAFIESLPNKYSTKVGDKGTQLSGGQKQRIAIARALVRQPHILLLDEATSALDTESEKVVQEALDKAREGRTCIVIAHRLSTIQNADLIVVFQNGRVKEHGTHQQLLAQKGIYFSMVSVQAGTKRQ
Series [3] deals with T1, Broad substrate specificity ATP-binding cassette transporter ABCG2. Briefly: TP_TRANSPORTER: efflux in BCRP-expressing EPG85-257 cells.
The target of series [4] is T2, ATP-dependent translocase ABCB1. Briefly: TP_TRANSPORTER: efflux in MDR1-expressing EPG85-257 cells.

Take `COc1ccc2c(C[C@@H]3NC(=O)[C@@H]4CCCN4C3=O)c(CC=C(C)C)[nH]c2c1` [TRYPROSTATIN A]: the Activity entry in series [1] and in series [2] was “inhibitor []” in each case.

On to `CCCCCCCC/C=C\CCCCCCCC(=O)OC(COC(=O)CCCCCCC/C=C/CCCCCCCC)COP(=O)(O)OC[C@H](Nc1ccc([N+](=O)[O-])c2nonc12)C(=O)O` (stereo partly specified), for which the Activity result in series [3] and in series [4] was “substrate []” in each case.

Regarding `COc1cc2c(cc1OC)CN(CCc1ccc(NC(=O)c3cccc4c(=O)c5cccc(OC)c5[nH]c34)cc1)CC2.Cl` [ELACRIDAR HYDROCHLORIDE], the Activity result in series [1] was “inhibitor []”.

Turning to `CCCCCCCCCCCCCCCC(=O)OCC(COP(=O)([O-])OCC[N+](C)(C)C)OC(=O)CCCCCNc1ccc([N+](=O)[O-])c2nonc12` (stereo unspecified), the Activity result in series [3] is “substrate []”.
